From patent publication US7368471B2, “Substituted indole acid derivatives as inhibitors of plasminogen activator inhibitor-1 (PAI-1)” (Wyeth, priority 2001, dated 2008)

How the values were obtained:
[1] = molecular target: T1, recombinant human plasminogen activator inhibitor-1 (PAI-1) (Homo sapiens, UniProt P05121); test: Primary Screen for the PAI-1 Inhibition (residual tPA activity, Spectrozyme-tPA chromogenic substrate); assay type: biochemical; conditions: 25 μM test compound
T1 construct: purchased Molecular Innovations, Royal Oak, Mich
Procedure: Primary Screen for the PAI-1 Inhibition
Test compounds are dissolved in DMSO at a final concentration of 10 mM, then diluted 100× in physiologic buffer. The inhibitory assay is initiated by the addition of the test compound (1-100 μM final concentration, maximum DMSO concentration of 0.2%) in a pH 6.6 buffer containing 140 nM recombinant human plasminogen activator inhibitor-1 (PAI-1; Molecular Innovations, Royal Oak, Mich.). Following a 1 hour incubation at room temperature, 70 nM of recombinant human tissue plasminogen activator (tPA) is added, and the combination of the test compound, PAI-1 and tPA is incubated for an additional 30 minutes. Following the second incubation, Spectrozyme-tPA (American Diagnostica, Greenwich, Conn.), a chromogenic substrate for tPA, is added and absorbance read at 405 nm at 0 and 60 minutes. Relative PAI-1 inhibition is equal to the residual tPA activity in the presence of the test compound and PAI-1. Control treatments include the complete inhibition of tPA by PAI-1 at the molar ratio employed (2:1), and the absence of any effect of the test compound on tPA alone.

T1 sequence (P05121 24-402): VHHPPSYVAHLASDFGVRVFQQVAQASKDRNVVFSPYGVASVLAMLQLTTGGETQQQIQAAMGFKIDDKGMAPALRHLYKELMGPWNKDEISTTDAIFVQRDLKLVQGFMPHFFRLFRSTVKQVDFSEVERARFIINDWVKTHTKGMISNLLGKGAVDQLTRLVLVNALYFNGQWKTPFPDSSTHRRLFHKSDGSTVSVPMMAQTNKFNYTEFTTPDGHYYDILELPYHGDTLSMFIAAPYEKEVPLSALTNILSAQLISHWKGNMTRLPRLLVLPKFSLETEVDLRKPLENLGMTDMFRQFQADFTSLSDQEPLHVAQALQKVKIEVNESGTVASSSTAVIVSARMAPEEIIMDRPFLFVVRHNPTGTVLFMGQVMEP

Compound	inhibition at 25 µM [1] [%]	melting point	% Inhibition @ 25 μM [1] [%]
O=C(O)C(=O)c1cn(CCCC2CCCC2)c2ccc(-c3cccc(C(F)(F)F)c3)cc12 [Example 58, [5-(3-trifluoromethylphenyl)-1-(cyclopentylpropyl)-1H-indol-3-yl](oxo)acetic acid]	61		
CC(=O)c1ccc(-c2ccc3c(c2)c(C(=O)C(=O)O)cn3Cc2ccccc2)cc1 [Example 11, [5-(4-Acetylphenyl)-1-benzyl-1H-indol-3-yl](oxo)acetic acid]	19	213 to 214 °C (dec.)	
CC1CCC(n2cc(C(=O)C(=O)O)c3cc(-c4ccc(C(F)(F)F)cc4)ccc32)C1 (centres unmarked) [Example 51, [5-(4-trifluoromethylphenyl)-1-(3-methylcyclopentyl)-1H-indol-3-yl](oxo)acetic acid]	58		
CC(C)(C)c1ccc(Cn2cc(C(=O)C(=O)O)c3cc(-c4ccc(Cl)cc4)ccc32)cc1 [Example 38, [1-(4-tert-Butylbenzyl)-5-(4-chlorophenyl)-1H-indol-3-yl](oxo)acetic acid]	14	183 to 184 °C	
O=C(O)C(=O)c1cn(CC2CCCCC2)c2ccc(-c3ccc(C(F)(F)F)cc3)cc12 [Example 52, [5-(4-trifluoromethylphenyl)-1-(cyclohexylmethyl)-1H-indol-3-yl](oxo)acetic acid]	59		
CCn1cc(C(=O)C(=O)O)c2ccc(-c3ccc(OC(F)(F)F)cc3)cc21 [Example 3, {1-Ethyl-6-[4-(trifluoromethoxy)phenyl]-1H-indol-3-yl}(oxo)acetic acid]	24	204 to 205 °C	
Cn1cc(C(=O)C(=O)O)c2ccc(-c3ccc(C(C)(C)C)cc3)cc21 [Example 10, {6-[4-(tert-Butyl)phenyl]-1-methyl-1H-indol-3-yl}(oxo)acetic acid]	33	201 to 202 °C (dec.)	
O=C(O)C(=O)c1cn(CC2CCC2)c2ccc(-c3ccc(C(F)(F)F)cc3)cc12 [Example 50, [5-(4-trifluoromethylphenyl)-1-(cyclobutylmethyl)-1H-indol-3-yl](oxo)acetic acid]	59		
Cn1cc(C(=O)O)c2ccc(-c3ccc(C(C)(C)C)cc3)cc21 [Example 61, 6-(4-tert-Butyl-phenyl)-1-methyl-1H-indole-3-carboxylic acid]	28	236 to 238 °C (dec.)	
O=C(O)C(=O)c1cn(Cc2ccccc2)c2cccc(-c3ccc(C(F)(F)F)cc3)c12 [Example 13, {1-Benzyl-4-[4-(trifluoromethyl)phenyl]-1H-indol-3-yl}(oxo)acetic acid]	27	183 to 184 °C	
CC(C)(C)c1ccc(-c2ccc3c(c2)c(C(=O)C(=O)O)cn3Cc2ccccc2)cc1 [Example 14, {1-Benzyl-5-[4-(tert-butyl)phenyl]-1H-indol-3-yl}(oxo)acetic acid]	55	210 to 211 °C (dec.)	
CCn1cc(C(=O)C(=O)O)c2ccc(-c3ccc(C(F)(F)F)cc3)cc21 [Example 4, {1-Ethyl-6-[4-(trifluoromethyl)phenyl]-1H-indol-3-yl}(oxo)acetic acid]	16	247 to 248 °C	
CC(C)(C)c1ccc(Cn2cc(C(=O)C(=O)O)c3ccc(-c4ccc(C(F)(F)F)cc4)cc32)cc1 [Example 7, {1-[4-(tert-Butyl)benzyl]-6-[4-(trifluoromethyl)phenyl]-1H-indol-3-yl}(oxo)acetic acid]	26	205 to 206 °C (dec.)	
Cc1cccc(-c2ccc3c(c2)c(CC(=O)O)cn3Cc2ccc(C(C)(C)C)cc2)c1 [Example 64, 2-[1-[4-(tert-Butyl)benzyl]-5-(3-methylphenyl)-1H-indol-3-yl]-acetic acid]		91 to 92 °C	
O=C(O)C(=O)c1cn(CC2CCC2)c2ccc(-c3cccc(C(F)(F)F)c3)cc12 [Example 55, [5-(3-trifluoromethylphenyl)-1-(cyclobutylmethyl)-1H-indol-3-yl](oxo)acetic acid]	51		
O=C(O)C(=O)c1cn(C2CCCC2)c2ccc(-c3cccc(C(F)(F)F)c3)cc12 [Example 54, [5-(3-trifluoromethylphenyl)-1-(cyclopentyl)-1H-indol-3-yl](oxo)acetic acid]	46		
CC(=O)OCc1c(C(=O)C(=O)O)c2cc(-c3ccc(OC(F)(F)F)cc3)ccc2n1Cc1ccc(C)cc1 [Example 41, {2-[(Acetyloxy)methyl]-1-(4-methylbenzyl)-5-[4-(trifluoromethoxy)phenyl]-1H-indol-3-yl}(oxo)acetic acid]	13	79 to 80 °C	
O=C(O)C(=O)c1cn(Cc2ccccc2)c2cccc(-c3ccc(OC(F)(F)F)cc3)c12 [Example 20, {1-Benzyl-4-[4-(trifluoromethoxy)phenyl]-1H-indol-3-yl}(oxo)acetic acid]	14		

Compound	inhibition at 25 µM [1] [%]	melting point	% Inhibition @ 25 μM [1] [%]
O=C(O)C(=O)c1cn(C2CCCC2)c2ccc(-c3ccc(C(F)(F)F)cc3)cc12 [Example 49, [5-(4-trifluoromethylphenyl)-1-(cyclopentyl)-1H-indol-3-yl](oxo)acetic acid]	54		
[5-(3-chlorophenyl)-1-(3-methylcyclopropyl)-1H-indol-3-yl](oxo)acetic acid [Example 47]			51
O=C(O)C(=O)c1cn(C2CCCC2)c2ccc(-c3cccc(Cl)c3)cc12 [Example 45, [5-(3-Chlorophenyl)-1-cyclopentyl-1H-indol-3-yl]-oxo-acetic acid]	45		
Cn1cc(CC(=O)O)c2cc(-c3ccc(C(F)(F)F)cc3)ccc21 [Example 63, [1-Methyl-5-(4-trifluoromethyl-phenyl)-1H-indol-3-yl]-acetic acid]		167 to 168 °C	
O=C(O)C(=O)c1cn(CC2CCC2)c2ccc(-c3cccc(Cl)c3)cc12 [Example 46, [5-(3-chlorophenyl)-1-(cyclobutylmethyl)-1H-indol-3-yl](oxo)acetic acid]	45		
O=C(O)C(=O)c1cn(CC2CCCCC2)c2ccc(-c3cccc(C(F)(F)F)c3)cc12 [Example 57, [5-(3-trifluoromethylphenyl)-1-(cyclohexylmethyl)-1H-indol-3-yl](oxo)acetic acid]	57		
CCCCn1cc(C(=O)C(=O)O)c2cc(-c3ccc(OC)cc3)ccc21 [Example 32, [1-Butyl-5-(4-methoxyphenyl)-1H-indol-3-yl](oxo)acetic acid]	28	172 to 173 °C	
Cn1cc(C(=O)C(=O)O)c2ccc(-c3ccc(OC(F)(F)F)cc3)cc21 [Example 1, {1-Methyl-6-[4-(trifluoromethoxy)phenyl]-1H-indol-3-yl}(oxo)acetic acid]	15	233 to 235 °C (dec.)	
O=C(O)C(=O)c1cn(CCCC2CCCC2)c2ccc(-c3ccc(C(F)(F)F)cc3)cc12 [Example 53, [5-(4-trifluoromethylphenyl)-1-(cyclopentylpropyl)-1H-indol-3-yl](oxo)acetic acid]	67		
COc1ccc(-c2ccc3c(c2)c(C(=O)C(=O)O)cn3CC2CCCCC2)cc1 [Example 59, [5-(4-methoxyphenyl)-1-(cyclohexylmethyl)-1H-indol-3-yl](oxo)acetic acid]	58		
Cn1cc(C(=O)O)c2ccc(-c3ccc(C(F)(F)F)cc3)cc21 [Example 60, 1-Methyl-6-(4-trifluoromethyl-phenyl)-1H-indole-3-carboxylic acid]	39	237 to 239 °C (dec.)	
CC1CCC(n2cc(C(=O)C(=O)O)c3cc(-c4cccc(C(F)(F)F)c4)ccc32)C1 (centres unmarked) [Example 56, [5-(3-trifluoromethylphenyl)-1-(3-methylcyclopentyl)-1H-indol-3-yl](oxo)acetic acid]	54		
O=C(O)C(=O)c1cn(Cc2ccccc2)c2cc(-c3ccc(C(F)(F)F)cc3)ccc12 [Example 6, {1-Benzyl-6-[4-(trifluoromethyl)phenyl]-1H-indol-3-yl}(oxo)acetic acid]	27	223 to 224 °C (dec.)	
Cc1ccc(Cn2cc(CC(=O)O)c3cc(-c4ccc(OC(F)(F)F)cc4)ccc32)cc1 [Example 65, {1-(4-Methylbenzyl)-5-[4-(trifluoromethoxy)phenyl]-1H-indol-3-yl}acetic acid]		62 to 63 °C	
O=C(O)C(=O)c1cn(Cc2ccccc2)c2ccc(-c3ccccc3)cc12 [Example 24, (1-Benzyl-5-phenyl-1H-indol-3-yl)(oxo)acetic acid]	47	193 to 195 °C (dec.)	
O=C(O)C(=O)c1cn(Cc2ccccc2)c2cc(-c3ccccc3)ccc12 [Example 23, (1-Benzyl-6-phenyl-1H-indol-3-yl)(oxo)acetic acid]	40		
O=C(O)C(=O)c1cn(Cc2ccccc2)c2ccc(-c3ccc(C(F)(F)F)cc3)cc12 [Example 9, {1-Benzyl-5-[4-(trifluoromethyl)phenyl]-1H-indol-3-yl}(oxo)acetic acid]	40	201 to 202 °C (dec.)	
CCCCn1cc(C(=O)C(=O)O)c2cc(-c3cccc(OC)c3)ccc21 [Example 31, [1-Butyl-5-(3-methoxyphenyl)-1H-indol-3-yl](oxo)acetic acid]	32	108 to 109 °C	
